Source: patent US20230365563A1, “QUINAZOLINE COMPOUND AND APPLICATION THEREOF” (SHANGHAI PHARMACEUTICALS HOLDING CO., LTD., priority 2020, published 2023)
Counter-ions that a name gives are not always drawn.

Biological target: T1, KRAS-G12D and SOS1 (Homo sapiens, UniProt P01116, G12D)
T1 construct: purchased
Test: Inhibition of KRAS-G12D/SOS1 binding (Cisbio binding kit, 665/615 ratio), Effect Embodiment A
Conditions: read-out: GTP-KRAS-G12D:SOS1 IC50
Method: Similarly, the first dilution point of the compound to be tested was its storage solution, and the solution was 3-fold diluted, with 11+0 points of dilution. Echo was used to transfer 0.2 μL gradient diluted solution of the compounds into a 384-well plate, with 2 duplicated wells for each compound, and the final concentration of DMSO was 1%. The solution was centrifuged for 1 min at 1000 rpm/min.
IC50 of the compounds was fitted by Graphpad Prism 8 nonlinear regression equation: […]
The IC50 (half inhibitory concentration) of the compound was obtained by using the following nonlinear fitting formula: […]

T1 sequence (P01116 1-188 isoform P01116-2 G12D): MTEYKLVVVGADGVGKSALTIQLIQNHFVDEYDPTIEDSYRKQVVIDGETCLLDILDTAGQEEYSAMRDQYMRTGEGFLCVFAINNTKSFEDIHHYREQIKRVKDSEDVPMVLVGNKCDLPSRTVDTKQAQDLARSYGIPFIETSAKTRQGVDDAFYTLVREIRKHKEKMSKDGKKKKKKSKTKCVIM

Row | SMILES | IC50 [µM]
1 | CN(C)CCN(C)c1nc(N2CC(N(C)C)C2)nc2c(F)c(-c3cc(O)cc4ccccc34)c(Cl)cc12 (single isomer, unassigned) [Compound 17a, (R or S)-4-(6-chloro-2-(3-(dimethylamino)azetidin-1-yl)-4-((2-(dimethylamino)ethyl)(methyl)amino)-8-fluoro-quinazolin-7-yl)naphthalen-2-ol] | 5.81
2 | CN(C)C1CN(c2nc(NCCO)c3cc(Cl)c(-c4cc(O)cc5ccccc45)c(F)c3n2)C1 (single isomer, unassigned) [Compound 18b, (S or R)-4-(6-chloro-2-(3-(dimethylamino)azetidin-1-yl)-8-fluoro-4-((2-hydroxyethyl)amino)-quinazolin-7-yl)naphthalen-2-ol] | 2.36
3 | CN(C)C1CN(c2nc(C3CNC3)c3cc(Cl)c(-c4cc(O)cc5ccccc45)c(F)c3n2)C1 (single isomer, unassigned) [Compound 21a, (S or R)-4-(4-(azetidin-3-yl)-6-chloro-2-(3-(dimethylamino)azetidin-1-yl)-8-fluoroquinazolin-7-yl)naphthalen-2-ol bistrifluoroacetate] | 1.28
4 | CN(C)C1CN(c2nc(C3(C(N)=O)CNC3)c3cc(Cl)c(-c4cc(O)cc5ccccc45)c(F)c3n2)C1 (single isomer, unassigned) [Compound 22b, (R or S)-3-(6-chloro-2-(3-(dimethylamino)azetidin-1-yl)-8-fluoro-7-(3-hydroxynaphthalen-1-yl)quinazolin-4-yl)azetidin-3-carboxamide bistrifluoroacetate] | 2.42
5 | CN(C)C1CN(c2nc(N3C[C@H]4CC[C@@H](C3)[C@@H]4N)c3cc(Cl)c(-c4cc(O)cc5ccccc45)c(F)c3n2)C1 (single isomer, unassigned) [Compound 30, (S or R)-4-(4-((1R,5S,8S)-8-amino-3-azabicyclo[3.2.1]octan-3-yl)-6-chloro-2-(3-(dimethylamino)azetidin-1-yl)-8-fluoroquinazolin-7-yl)naphthalen-2-ol] | 1.23
6 | CN(C)C1CN(c2nc(NC3CC4CCCC(C3)N4)c3cc(Cl)c(-c4cc(O)cc5ccccc45)c(F)c3n2)C1 (single isomer, unassigned) [Compound 31, 4-((S or R)-4-(((1R,3R,5S)-9-azabicyclo[3.3.1]nonan-3-yl)amino)-6-chloro-2-(3-(dimethylamino)azetidin-1-yl)-8-fluoroquinazolin-7-yl)naphthalen-2-ol] | ~69.7
7 | CN(C)C1CN(c2nc(N[C@@H]3C[C@H]4CCC[C@@H](C3)N4)c3cc(Cl)c(-c4cc(O)cc5ccccc45)c(F)c3n2)C1 (single isomer, unassigned) [Compound 32, 4-((S or R)-4-(((1R,3S,5S)-9-azabicyclo[3.3.1]nonan-3-yl)amino)-6-chloro-2-(3-(dimethylamino)azetidin-1-yl)-8-fluoroquinazolin-7-yl)naphthalen-2-ol] | 187
8 | CN1CCC[C@H]1COc1nc(N2CC3CCC(C2)N3)c2cc(Cl)c(-c3cc(O)cc4ccccc34)c(F)c2n1 (single isomer, unassigned) [Compound 39b, (R or S)-4-(4-((1R,5S)-3,8-diazabicyclo[3.2.1]octan-3-yl)-6-chloro-8-fluoro-2-((S)-1-methylpyrrolidin-2-yl)methoxy)quinazolin-7-yl)naphthalen-2-ol] | 17.7
9 | CN(C)CCCOc1nc(N2CC3CCC(C2)N3)c2cc(Cl)c(-c3cc(O)cc4ccccc34)c(F)c2n1 (single isomer, unassigned) [Compound 40b, (R or S)-4-(4-((1R,5,S)-3,8-diazabicyclo[3.2.1]octan-3-yl)-6-chloro-2-(3-(dimethylamino)propoxy)-8-fluoroquinazolin-7-yl)naphthalen-2-ol] | 4.8
10 | CN(C)C1CN(c2nc(N3CC4CCC(C3)N4)c3cc(Cl)c(-c4cccc5ccccc45)c(F)c3n2)C1 (single isomer, unassigned) [Compound 42b, -((R or S)-4-((1R,5S)-3,8-diazabicyclo[3.2.1]octan-3-yl)-6-chloro-8-fluoro-7-(naphthalen-1-yl)quinazolin-2-yl)-N,N-dimethylazetidin-3-amine] | 6.47
11 | CN(C)C1CN(c2nc(N3CC4CCC(C3)N4)c3cc(Cl)c(-c4c(O)cccc4F)c(F)c3n2)C1 (single isomer, unassigned) [Compound 43b, 2-((R or S)-4-((1R,5S)-3,8-diazabicyclo[3.2.1]octan-3-yl)-6-chloro-2-(3-(dimethylamino)azetidin-1-yl)-8-fluoroquinazolin-7-yl)-3-fluorophenol] | 2.57
12 | CN(C)C1CN(c2nc(N3CC4CCC(C3)N4)c3cc(Cl)c(-c4cc(O)cc5cccnc45)c(F)c3n2)C1 (single isomer, unassigned) [Compound 45a, 8-((S or R)-4-((1R,5S)-3,8-diazabicyclo[3.2.1]octan-3-yl)-6-chloro-2-(3-(dimethylamino)azetidin-1-yl)-8-fluoroquinazolin-7-yl)quinolin-6-o1] | 1.26
13 | CCN(C)CCCOc1nc(N2CC3CCC(C2)N3)c2cc(Cl)c(-c3cc(O)cc4ccccc34)c(F)c2n1 (single isomer, unassigned) [Compound 49b, 4-((R or S)-4-((1R,5S)-3,8-diazabicyclo[3.2.1]octan-3-yl)-6-chloro-2-(3-(ethyl(methyl)amino)propoxy)-8-fluoroquinazolin-7-yl)naphthalen-2-ol dicarboxylate] | 13.8
14 | CCCN(C)CCCOc1nc(N2CC3CCC(C2)N3)c2cc(Cl)c(-c3cc(O)cc4ccccc34)c(F)c2n1 (single isomer, unassigned) [Compound 51b, 4-((R or S)-4-((1R,5S)-3,8-diazabicyclo[3.2.1]octan-3-yl)-6-chloro-8-fluoro-2-(3-(methyl(propyl)amino)propoxy)quinazolin-7-yl)naphthalen-2-ol] | 50.8
15 | CN1CCN(c2nc(N3CC4CCC(C3)N4)c3cc(Cl)c(-c4cc(O)cc5ccccc45)c(F)c3n2)CC1 (single isomer, unassigned) [Compound 52b, 4-((R or S)-4-((1R,5S)-3,8-diazabicyclo[3.2.1]octan-3-yl)-6-chloro-8-fluoro-2-(4-methylpiperazin-1-yl)quinazolin-7-yl)naphthalen-2-ol] | 73.9
16 | CCN(CC)CCCOc1nc(N2CC3CCC(C2)N3)c2cc(Cl)c(-c3cc(O)cc4ccccc34)c(F)c2n1 (single isomer, unassigned) [Compound 53b, 4-((R or S)-4-((1R,5,S)-3,8-diazabicyclo[3.2.1]octan-3-yl)-6-chloro-2-(3-(diethylamino)propoxy)-8-fluoroquinazolin-7-yl)naphthalen-2-ol] | 2.29
17 | Oc1cc(-c2c(Cl)cc3c(N4CC5CCC(C4)N5)nc(OCCCN4CCOCC4)nc3c2F)c2ccccc2c1 (single isomer, unassigned) [Compound 54b, 4-((R or S)-4-((1R,5S)-3,8-diazabicyclo[3.2.1]octan-3-yl)-6-chloro-8-fluoro-2-(3-morpholinopropoxy)quinazolin-7-yl)naphthalen-2-ol dihydrochloride] | 22.1
18 | CN1CCCC[C@H]1COc1nc(N2CC3CCC(C2)N3)c2cc(Cl)c(-c3cc(O)cc4ccccc34)c(F)c2n1 (single isomer, unassigned) [Compound 56b, 4-((R or S)-4-((1R,5S)-3,8-diazabicyclo[3.2.1]octan-3-yl)-6-chloro-8-fluoro-2-((S)-1-methylpiperidin-2-yl)methoxy)quinazolin-7-yl)naphthalen-2-ol dihydrochloride] | 15.7
19 | Oc1cc(-c2c(Cl)cc3c(N4CC5CCC(C4)N5)nc(OCC45CCCN4CCC5)nc3c2F)c2ccccc2c1 (single isomer, unassigned) [Compound 58b, 4-((R or S)-4-((1R,5S)-3,8-diazabicyclo[3.2.1]octan-3-yl)-6-chloro-8-fluoro-2-((tetrahydro-1H-pyrrolin-7a(5H)-yl)methoxy)quinazolin-7-yl)naphthalen-2-ol] | 15.1
20 | Oc1cc(-c2c(Cl)cc3c(N4CC5CCC(C4)N5)nc(OCCCN4CCC4)nc3c2F)c2ccccc2c1 (single isomer, unassigned) [Compound 59b, 4-((R or S)-2-(3-(azetidin-1-yl)propoxy)-4-((1R,5S)-3,8-diazabicyclo[3.2.1]octan-3-yl)-6-chloro-8-fluoroquinazolin-7-yl)naphthalen-2-ol] | 5.98
21 | CN(C)CCCCOc1nc(N2CC3CCC(C2)N3)c2cc(Cl)c(-c3cc(O)cc4ccccc34)c(F)c2n1 (single isomer, unassigned) [Compound 60b, 4-((R or S)-4-((1R,5S)-3,8-diazabicyclo[3.2.1]octan-3-yl)-6-chloro-2-(4-(dimethylamino)butoxy)-8-fluoroquinazolin-7-yl)naphthalen-2-ol] | 72.4
22 | Oc1cc(-c2c(Cl)cc3c(N4CC5CCC(C4)N5)nc(OCCCN4CCCC4)nc3c2F)c2ccccc2c1 (single isomer, unassigned) [Compound 63b, 4-((R or S)-4-((1R,5S)-3,8-diazabicyclo[3.2.1]octan-3-yl)-6-chloro-8-fluoro-2-(3-(pyrrolidin-1-yl)propoxy)quinazolin-7-yl)naphthalen-2-ol] | 12.9
23 | CN(C)C1CN(c2nc(N3CC4CCC(C3)N4)c3cc(Cl)c(-c4cc(O)cc5cccc(F)c45)c(F)c3n2)C1 (single isomer, unassigned) [Compound 64a, 4-((S or R)-4-((1R,5S)-3,8-diazabicyclo[3.2.1]octan-3-yl)-6-chloro-2-(3-(dimethylamino)azetidin-1-yl)-8-fluoroquinazolin-7-yl)-5-fluoronaphthalen-2-ol] | 31.7
24 | CN(C)C1CN(c2nc(N3CC4CCC(C3)N4)c3cc(Cl)c(-c4cc(O)cc5cccc(Cl)c45)c(F)c3n2)C1 (single isomer, unassigned) [Compound 65a, 4-((S or R)-4-((1R,5S)-3,8-diazabicyclo[3.2.1]octan-3-yl)-6-chloro-2-(3-(dimethylamino)azetidin-1-yl)-8-fluoroquinazolin-7-yl)-5-chloronaphthalen-2-ol] | 44.6
